Laboratory results: patent US5747535A, “Selective thrombin inhibitors” (priority 1995, dated 1998)
Where two headings read alike, the source gives them in different places.

Assay: Test 2: Pharmacokinetic test in rats
Assay type: in vivo, rat
Conditions: for concentration at 0.05 h: 3 min; for concentration at 0.5 h: 30 min; for concentration at 0.75 h: 45 min; for concentration at 1 h: 60 min; for concentration at 1.5 h: 90 min; for concentration at 2 h: 120 min; for concentration at 3 h: 180 min; for bioavailability: oral route
Experimental: Male rats and dogs were fasted for 24 hours and used as the experimental animals. […] Bloods were collected from the animals at given time intervals and then immediately mixed with methanol and zinc sulfate. Finally, the upper layer of the mixture was quantitatively analyzed at ultraviolet wavelength of 231 nm to measure the drug concentration in blood by HPLC.

[1] = rat, blood, iv, 10 mg/kg, Rat-1, i.v. 10 mg/kg, read-out: Blood concentration
[2] = rat, blood, iv, 10 mg/kg, Rat-2, i.v. 10 mg/kg, read-out: Blood concentration
[3] = rat, blood, iv, 10 mg/kg, Rat-3, i.v. 10 mg/kg, read-out: Blood concentration
[4] = rat, blood, iv, 10 mg/kg, rats, i.v. 10 mg/kg, read-out: Blood concentration, Average(+error)
[5] = rat, blood, po, 15 mg/kg, Rat-1, oral 15 mg/kg, read-out: Blood concentration
[6] = rat, blood, po, 15 mg/kg, Rat-2, oral 15 mg/kg, read-out: Blood concentration
[7] = rat, blood, po, 15 mg/kg, Rat-3, oral 15 mg/kg, read-out: Blood concentration
[8] = rat, blood, po, 15 mg/kg, rats, oral 15 mg/kg, read-out: Blood concentration, Average(+error)

In the case of `CN(C(=O)[C@H](Cc1ccc(C(=N)NN)cc1)NS(=O)(=O)c1ccc2ccccc2c1)C1CCCC1` [Example 1, (S)-N-cyclopentyl-N-methyl-3-(4-amidrazonophenyl)-2-(2-naphthylsulfonylamino)propionamide], the concentration at 1 min [1] was 31500 ng/mL, the concentration at 0.05 h [1] was 8100 ng/mL and the concentration at 5 min [1] was 3980 ng/mL. It also gave a concentration at 10 min [1] of 1910 ng/mL, a concentration at 20 min [1] of 918 ng/mL and a concentration at 0.5 h [1] of 631 ng/mL. For the same compound, the concentration at 0.75 h [1] was 355 ng/mL, the concentration at 1 h [1] was 270 ng/mL and the concentration at 1.5 h [1] was 168 ng/mL. The concentration at 2 h [1] was 76 ng/mL, the concentration at 3 h [1] was 87 ng/mL and the concentration at 1 min [2] was 23000 ng/mL. It also gave a concentration at 0.05 h [2] of 6770 ng/mL, a concentration at 5 min [2] of 3070 ng/mL and a concentration at 10 min [2] of 1830 ng/mL. For the same compound, the concentration at 20 min [2] was 898 ng/mL, the concentration at 0.5 h [2] was 600 ng/mL and the concentration at 0.75 h [2] was 408 ng/mL. It also gave a concentration at 1 h [2] of 242 ng/mL, a concentration at 1.5 h [2] of 166 ng/mL and a concentration at 2 h [2] of 97 ng/mL. For the same compound, the concentration at 3 h [2] was 73 ng/mL, the concentration at 1 min [3] was 32000 ng/mL and the concentration at 0.05 h [3] was 7880 ng/mL. The concentration at 5 min [3] was 4220 ng/mL, the concentration at 10 min [3] was 1930 ng/mL and the concentration at 20 min [3] was 883 ng/mL. For the same compound, the concentration at 0.5 h [3] was 591 ng/mL, the concentration at 0.75 h [3] was 398 ng/mL and the concentration at 1 h [3] was 289 ng/mL. For the same compound, the concentration at 1.5 h [3] was 184 ng/mL, the concentration at 2 h [3] was 119 ng/mL and the concentration at 3 h [3] was 78 ng/mL. The concentration at 1 min [4] was 28800 ng/mL, the concentration at 0.05 h [4] was 7590 ng/mL and the concentration at 5 min [4] was 3760 ng/mL. For the same compound, the concentration at 10 min [4] was 1890 ng/mL, the concentration at 20 min [4] was 900 ng/mL and the concentration at 0.5 h [4] was 607 ng/mL. For the same compound, the concentration at 0.75 h [4] was 387 ng/mL, the concentration at 1 h [4] was 267 ng/mL and the concentration at 1.5 h [4] was 173 ng/mL. It also gave a concentration at 2 h [4] of 97 ng/mL, a concentration at 3 h [4] of 79 ng/mL and a concentration at 5 min [5] of 1610 ng/mL. It also gave a concentration at 10 min [5] of 1480 ng/mL, a concentration at 20 min [5] of 569 ng/mL and a concentration at 0.5 h [5] of 232 ng/mL. It also gave a concentration at 0.75 h [5] of 145 ng/mL, a concentration at 1 h [5] of 143 ng/mL and a concentration at 1.5 h [5] of 66 ng/mL. The concentration at 2 h [5] was 34 ng/mL, the concentration at 3 h [5] was 24 ng/mL and the concentration at 5 min [6] was 822 ng/mL. For the same compound, the concentration at 10 min [6] was 686 ng/mL, the concentration at 20 min [6] was 166 ng/mL and the concentration at 0.5 h [6] was 82 ng/mL. It also gave a concentration at 0.75 h [6] of 107 ng/mL, a concentration at 1 h [6] of 123 ng/mL and a concentration at 1.5 h [6] of 186 ng/mL. The concentration at 3 h [6] was 238 ng/mL, the concentration at 5 min [7] was 570 ng/mL and the concentration at 10 min [7] was 384 ng/mL. It also gave a concentration at 20 min [7] of 97 ng/mL, a concentration at 0.5 h [7] of 113 ng/mL and a concentration at 0.75 h [7] of 112 ng/mL. For the same compound, the concentration at 1 h [7] was 110 ng/mL, the concentration at 1.5 h [7] was 119 ng/mL and the concentration at 2 h [7] was 71 ng/mL. It also gave a concentration at 3 h [7] of 64 ng/mL, a concentration at 5 min [8] of 1000 ng/mL and a concentration at 10 min [8] of 850 ng/mL. For the same compound, the concentration at 20 min [8] was 255 ng/mL, the concentration at 0.5 h [8] was 143 ng/mL and the concentration at 0.75 h [8] was 121 ng/mL. It also gave a concentration at 1 h [8] of 125 ng/mL, a concentration at 1.5 h [8] of 124 ng/mL and a concentration at 2 h [8] of 53 ng/mL. For the same compound, the concentration at 3 h [8] was 109 ng/mL, the bioavailability (rat, blood, rats, read-out: Bioavailability) was 15% and the half-life (rat, blood, rats, read-out: Elimination Half-life, Average + (error)) was 47 min. The “distribution and disappearance after intravenous injection” value (rats, intravenous) was “rapidly distributed and then slowly disappeared” and the bioavailability (rats) was 15 (2) %.
